Results reported in ChEMBL document CHEMBL3244339, “Antitumor 1-(X-aryl)-3,3-dialkyltriazenes. 1. Quantitative structure-activity relationships vs. L1210 leukemia in mice” (J Med Chem, 1978).
Values belong to the compound of their own block, whether it stands above or below them. Calls of active or inactive are those of the source. The rule behind the calls is not given here.

Key:
[1] = Aqueous phase distribution coefficient, log P of the compound in phosphate buffer at pH 7.4; assay type: physicochemical
[2] = test system: L1210; test: Antitumor activity against mouse L1210 cells allografted in mouse assessed as increase of host lifespan of 110 days; assay type: functional, cell-based
[3] = species on record: Mus musculus; test: Toxicity in mouse L1210 cells allografted mouse assessed as mortality up to 5 days; assay type: organism-based; conditions: l1210, 120 h
[4] = Distribution coefficient, log P of the compound; assay type: physicochemical; conditions: octanol/water; read-out: logP
[5] = test system: L1210; test: Antitumor activity against mouse L1210 cells allografted in mouse assessed as increase of host lifespan; assay type: functional

logD [1]: 3.13
Compound: CSc1ccccc1/N=N/N(C)C
Activity [2]: inactive

Compound: COc1ccccc1/N=N/N(C)C
Activity [3]: Toxic
logD [1]: 2.34

Compound: CN(C)/N=N/c1ccccc1C(N)=O
logD [1]: 1.73
logP [4]: 1.73
log(1/C) [5]: 3.31

Compound: CN(C)/N=N/c1ccccc1
logD [1]: 2.59
logP [4]: 2.59
log(1/C) [5]: 3.85
